Values of other authors in patent US8877755B2, “Dopamine-agonist combination therapy for improving sleep quality” (priority 2004, dated 2014).
Where a name gives a salt, the structure may show the parent alone. Read-outs that look alike come from different tables or passages of the source.

Key:
[1] = in vivo
[2] = in vivo; remark: listed apart in the source
[3] = not given; remark: listed apart in the source
[4] = L-dopa 100 mg with carbidopa 10 mg, in most cases
[5] = following oral administration
[6] = primates, multiple doses for up to four days
[7] = not given; remark: listed apart in the source
[8] = mice; behavioral depression score <40
GABA uptake system = system: GABA uptake system; design: dose or concentration left out as unconfirmed
[9] = target: GABA:2-oxo-glutarate aminotransferase (Homo sapiens, UniProt P80404); conditions: at 10^−3 M
Sequence of GABA:2-oxo-glutarate aminotransferase (P80404 29-500): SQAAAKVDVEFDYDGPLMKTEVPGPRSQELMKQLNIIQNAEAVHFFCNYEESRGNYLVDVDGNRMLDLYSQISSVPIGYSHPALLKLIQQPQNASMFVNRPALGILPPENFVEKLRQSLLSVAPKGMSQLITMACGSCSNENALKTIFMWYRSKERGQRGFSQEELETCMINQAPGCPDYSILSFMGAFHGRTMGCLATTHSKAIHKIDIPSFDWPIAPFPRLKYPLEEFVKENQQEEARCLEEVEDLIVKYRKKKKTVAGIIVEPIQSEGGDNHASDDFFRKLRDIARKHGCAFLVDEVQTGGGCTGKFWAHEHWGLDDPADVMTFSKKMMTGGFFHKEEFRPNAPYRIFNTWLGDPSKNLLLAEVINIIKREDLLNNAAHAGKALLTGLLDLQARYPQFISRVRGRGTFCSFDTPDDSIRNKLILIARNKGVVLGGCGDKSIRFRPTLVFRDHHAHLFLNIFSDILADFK

[10] = system: L-glutamate 1-carboxylase; conditions: at 10^−3 M
[11] = not given; remark: listed apart in the source
[12] = in vivo; remark: listed apart in the source

Oc1ccc(C2CNCCc3c2cc(O)c(O)c3Cl)cc1 (racemic) [racemic fenoldopam, 6-chloro-2,3,4,5-tetrahydro-1-(4-hydroxyphenyl)-1H-3-benzazepine-7,8-diol]
average clearance (CL) [1]: 2.6 L/min | half-life (t1/2) [1]: 4.6 min

C=CCN1C[C@H](C(=O)N(CCCN(C)C)C(=O)NCC)C[C@@H]2c3cccc4[nH]cc(c34)C[C@H]21 [Cabergoline, 1-[(6-allylergolin-8β-yl)-carbonyl]-1-[3-(dimethylamino)propyl]-3-ethylurea]
half life [2]: ≤ 65 h

CC(=O)N(C)c1cccc(-c2ccnc3c(C(=O)c4cccs4)cnn23)c1 [Indiplon, N-methyl-N-(3-{3-[2-thienylcarbonyl]-pyrazolo-[1,5-a]-pyrimidin-7-yl}-phenyl)acetamide]
half-life in vivo: approximately 1.3 hours | resulting pH of water solution ([3]; at 20-30 μg/ml in water): approximately 8.0

N[C@@H](Cc1ccc(O)c(O)c1)C(=O)O [L-dopa]
effect on RLS [4]: completely suppresses RLS

CCN(C(C)=O)c1cccc(-c2ccnc3c(C#N)cnn23)c1 [Zaleplon, N-[3-(3-cyanopyrazolo[1,5-a]pyrimidin-7-yl)phenyl]-N-ethylacetamide]
time to peak plasma concentration [5]: 1 h

CN1CCc2cccc3c2[C@H]1Cc1ccc(O)c(O)c1-3 [apomorphine HCl]
doses without major adverse effects [6]: 0.1 to 0.4 mg/kg | tolerated dose ([7]; single bolus subcutaneous injection, mammals): up to 13 mg/kg

CN1CCc2cccc3c2[C@H]1Cc1ccc(O)c(O)c1-3 [apomorphine, (R)-5,6,6a,7-tetrahydro-6-methyl-4H-dibenzo-[de,g]quinoline-10,11-diol]
tolerated dose, continuous infusion ([7]; continuous infusion for 14 days): 420 µg/kg/h | minimally lethal dose, continuous infusion ([7]; over the course of the 14 day study): 1,500 μg/kg/hr

CN1C(=O)CN=C(c2ccccc2)c2cc(Cl)ccc21 [diazepam]
ED100 [8]: 50 mg/kg

Oc1noc2c1CCNC2 [gaboxadol, 4,5,6,7-tetrahydroisoxazolo[5,4-c]pyridin-3-ol]
interaction with GABA uptake system (GABA uptake system): did not interact | interaction with GABA:2-oxo-glutarate aminotransferase [9]: did not interact | interaction with L-glutamate 1-carboxylase [10]: did not interact

CCC1(c2ccccc2)CCC(=O)NC1=O (centres unmarked) [glutethimide]
ED100 [8]: 300 mg/kg

O=C(CCCN1CCC(O)(c2ccc(Cl)cc2)CC1)c1ccc(F)cc1 [haloperidol]
ED100 [8]: 10 mg/kg

CCCC(C)(COC(N)=O)COC(N)=O [meprobamate]
ED100 [8]: 300 mg/kg

CN1C[C@@H](NS(=O)(=O)N(C)C)C[C@@H]2c3cccc4c3c(cn4C)C[C@H]21 [mesulergine, N′-(1,6-dimethylergolin-8α-yl)-N,N-dimethylsulfamide]
half-life in vivo [11]: approximately 2 hr | solubility in water ([3]; hydrochloride salt): soluble in water

CCCC(C)C1(CC)C(=O)NC(=O)NC1=O (centres unmarked) [pentobarbital]
ED100 [8]: 100 mg/kg

COC(=O)[C@H]1[C@H]2C[C@@H]3c4[nH]c5cc(OC)ccc5c4CCN3C[C@H]2C[C@@H](OC(=O)c2cc(OC)c(OC)c(OC)c2)[C@@H]1OC [reserpine]
ED100 [8]: 50 mg/kg

Cc1ccc(-c2nc3ccc(C)cn3c2CC(=O)N(C)C)cc1 [zolpidem, N,N,6-trimethyl-2-(4-methylphenyl)-imidazo[1,2-s]pyridine-3-acetamide]
elimination half-life (mean) [12]: 2.4 h
